According to patent US20250135006A1, “AMPHIPHILIC TLR7/8 ADJUVANTS AND USES THEREOF” (Pfizer Inc., priority 2023, published 2025):

Experiments:
[1] = target: T1, human toll like receptor 7 (hTLR7) (Homo sapiens, UniProt Q9NYK1); test: hTLR7 in-vitro functional assay (HEK-Blue hTLR7 SEAP reporter); type: cell-based; settings: HEK-Blue hTLR7 cells, overnight incubation
T1 construct: host or cells: HEK293 (HEK-Blue hTLR7)
T1 sequence (Q9NYK1 27-1049): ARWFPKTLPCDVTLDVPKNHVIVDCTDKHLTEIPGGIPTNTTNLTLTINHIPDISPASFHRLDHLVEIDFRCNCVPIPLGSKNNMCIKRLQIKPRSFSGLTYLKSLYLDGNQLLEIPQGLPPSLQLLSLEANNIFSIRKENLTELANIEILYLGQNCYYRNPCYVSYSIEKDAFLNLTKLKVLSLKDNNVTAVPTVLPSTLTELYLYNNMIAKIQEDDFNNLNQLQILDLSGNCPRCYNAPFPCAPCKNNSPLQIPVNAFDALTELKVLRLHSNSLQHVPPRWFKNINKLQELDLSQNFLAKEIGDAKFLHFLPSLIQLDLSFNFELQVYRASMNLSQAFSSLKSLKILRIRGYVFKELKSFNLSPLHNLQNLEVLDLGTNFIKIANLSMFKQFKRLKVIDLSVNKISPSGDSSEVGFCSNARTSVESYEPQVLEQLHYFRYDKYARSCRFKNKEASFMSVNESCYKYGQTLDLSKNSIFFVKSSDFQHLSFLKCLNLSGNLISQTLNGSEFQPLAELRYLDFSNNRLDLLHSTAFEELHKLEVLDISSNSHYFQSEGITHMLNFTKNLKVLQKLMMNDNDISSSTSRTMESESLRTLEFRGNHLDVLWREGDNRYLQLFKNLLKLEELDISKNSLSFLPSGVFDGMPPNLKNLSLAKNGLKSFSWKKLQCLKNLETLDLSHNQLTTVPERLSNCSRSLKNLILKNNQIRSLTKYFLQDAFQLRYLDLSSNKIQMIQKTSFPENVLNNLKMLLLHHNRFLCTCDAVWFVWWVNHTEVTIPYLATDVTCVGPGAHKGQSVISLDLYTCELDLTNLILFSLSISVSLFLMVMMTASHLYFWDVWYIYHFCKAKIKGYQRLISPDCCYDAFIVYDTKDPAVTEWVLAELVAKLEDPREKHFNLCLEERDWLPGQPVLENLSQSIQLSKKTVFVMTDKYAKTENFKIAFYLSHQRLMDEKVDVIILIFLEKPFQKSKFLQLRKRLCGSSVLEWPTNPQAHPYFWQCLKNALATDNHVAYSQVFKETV
From the text: (§1) To determine the ability of test compounds to activate the human toll like receptor 7 (hTLR7) or human toll like receptor 8 (hTLR8), cell-based reporter systems were utilized. HEK293 cells stably overexpressing either hTLR7 or hTLR8 along with a reporter gene containing an optimized secreted embryonic alkaline phosphatase gene (SEAP), under the control of the IFN-b minimal promoter fused to five NF-kB and AP-1-binding sites, were obtained from Invivogen (HEK-Blue™ hTLR7, cat #Hkb-htlr7; HEK-Blue™ hTLR8, cat #Hkb-htlr8). Stimulation of hTLR7 or hTLR8 in these cells activates NF-kB and AP-1 and induces the production of SEAP which can be quantified using an alkaline phosphatase detection reagent.
(§2) On day one of the assay, compounds were prepared using 11-point half-log serial dilutions from a 10 mM DMSO stock solution and 50 nL was spotted into 384-well plates (PerkinElmer, cat #6007480). Positive and negative controls were also spotted within the assay plate and were used to determine percent effect during the analysis process. After resuspension in DMEM assay media containing FBS heat inactivated (10%), Glutamax (2 mM) and Penicillin/Streptomycin, 10,000 cells/20 ul/well were added to previously prepared compound plates. Plates were incubated overnight (16-20 hrs) at 37° C. in a 5% CO2 environment. Prewetted Microclime lids (Labcyte, LLS-0310) were used to prevent evaporation. On day two of the assay, QUANTI-Blue™ detection reagent was prepared by reconstituting QUANTI-Blue™ powder (InvivoGen, Rep-qb1) with 100 ml of sterile water and allowed to equilibrate to 37° C. for 15 minutes. 20 ul of QUANTI-Blue™ detection reagent was added to each well and plates were incubated at room temperature for 180 min. At the end of the incubation, plates were read on an Envision (Perkin Elmer) plate reader capturing absorbance at 650 nm.
(§3) Using Positive (tool compound) and Negative (DMSO) controls, the percent (%) effect was calculated for each sample using the following equation: […]
(§4) The % effect at each concentration of compound was calculated utilizing the ABase software suite (IBDS) and was relative to the amount of SEAP produced in the positive and negative control wells contained within each assay plate. The concentrations and % effect values for test compounds were fit using a 4-parameter logistic model in ABase and the concentration of compound that produced 50% response (EC50) was calculated.

[2] = target: T2, human toll like receptor 8 (hTLR8) (Homo sapiens, UniProt Q9NR97); test: hTLR8 in-vitro functional assay (HEK-Blue hTLR8 SEAP reporter); type: cell-based; settings: HEK-Blue hTLR8 cells, overnight incubation
T2 construct: host or cells: HEK293 (HEK-Blue hTLR8)
T2 sequence (Q9NR97 27-1041): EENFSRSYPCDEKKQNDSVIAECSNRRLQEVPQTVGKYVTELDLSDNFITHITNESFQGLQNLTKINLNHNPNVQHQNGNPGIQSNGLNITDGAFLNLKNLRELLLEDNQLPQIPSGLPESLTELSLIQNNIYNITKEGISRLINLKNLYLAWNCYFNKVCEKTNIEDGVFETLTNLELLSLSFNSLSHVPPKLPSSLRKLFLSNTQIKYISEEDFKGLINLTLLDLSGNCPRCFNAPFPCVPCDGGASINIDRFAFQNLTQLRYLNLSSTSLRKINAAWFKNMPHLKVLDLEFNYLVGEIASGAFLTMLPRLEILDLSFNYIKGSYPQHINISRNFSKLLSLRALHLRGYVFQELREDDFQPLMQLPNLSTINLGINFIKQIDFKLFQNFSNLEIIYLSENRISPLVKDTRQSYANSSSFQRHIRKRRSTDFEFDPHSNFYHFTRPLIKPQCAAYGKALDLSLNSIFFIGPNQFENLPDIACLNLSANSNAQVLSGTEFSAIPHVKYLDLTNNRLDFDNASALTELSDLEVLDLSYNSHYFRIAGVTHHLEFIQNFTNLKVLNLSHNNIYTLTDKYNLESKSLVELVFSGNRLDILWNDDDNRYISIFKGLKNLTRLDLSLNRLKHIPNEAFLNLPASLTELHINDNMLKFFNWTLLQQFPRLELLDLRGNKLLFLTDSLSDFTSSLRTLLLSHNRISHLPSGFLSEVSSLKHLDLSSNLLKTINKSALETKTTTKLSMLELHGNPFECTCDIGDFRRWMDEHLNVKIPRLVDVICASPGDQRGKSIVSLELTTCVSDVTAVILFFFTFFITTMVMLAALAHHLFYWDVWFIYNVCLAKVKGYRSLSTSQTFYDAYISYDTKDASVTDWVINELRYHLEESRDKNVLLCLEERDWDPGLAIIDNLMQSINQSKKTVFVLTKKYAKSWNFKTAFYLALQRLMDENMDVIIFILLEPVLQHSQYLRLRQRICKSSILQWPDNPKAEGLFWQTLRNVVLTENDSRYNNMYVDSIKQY
From the text: as §1, §2, §3, §4

| EC50 [1] [nM] | EC50 [2] [nM] | SMILES |
| --- | --- | --- |
| 312 | 8280 | CCCCc1nc2c(N)nc3cc(CCCN4CCN(C(=O)CCOCCOCCOCCOCCOCCOCCOCCOCCOCCOCCOCCOCCNC(=O)CCOCCOCCOCCOCCNC(=O)CCCOc5c(C)c(C)c6c(c5C)CC[C@@](C)(CCC[C@H](C)CCC[C@H](C)CCCC(C)C)O6)CC4)ccc3c2n1CC(C)(CO)CO [Compound 25, N-{39-[4-(3-{4-amino-2-butyl-1-[3-hydroxy-2-(hydroxymethyl)-2-methylpropyl]-1H-imidazo[4,5-c]quinolin-7-yl}propyl)piperazin-1-yl]-39-oxo-3,6,9,12,15,18,21,24,27,30,33,36-dodecaoxanonatriacontan-1-yl}-17-oxo-20-({(2R)-2,5,7,8-tetramethyl-2-[(4R,8R)-4,8,12-trimethyltridecyl]-3,4-dihydro-2H-1-benzopyran-6-yl}oxy)-4,7,10,13-tetraoxa-16-azaicosan-1-amide] |
| 278 | > 25000 | CCCCc1nc2c(N)nc3cc(CCCN4CCN(CCCOCCOCCOCCOCCOCCOCCOCCOCCOCCOCCOCCOCCOCCOCCOCCOCCOCCOCCOCCOCCOCCOCCOCCOCCNC(=O)O[C@H]5CC[C@@]6(C)C(=CC[C@H]7[C@@H]8CC[C@H]([C@H](C)CCCC(C)C)[C@@]8(C)CC[C@@H]76)C5)CC4)ccc3c2n1CC(C)(CO)CO [Compound 16, (20R)-cholest-5-en-3beta-yl {75-[4-(3-{4-amino-2-butyl-1-[3-hydroxy-2-(hydroxymethyl)-2-methylpropyl]-1H-imidazo[4,5-c]quinolin-7-yl}propyl)piperazin-1-yl]-3,6,9,12,15,18,21,24,27,30,33,36,39,42,45,48,51,54,57,60,63,66,69,72-tetracosaoxapentaheptacontan-1-yl}carbamate] |
| 134 | 2380 | CCCCc1nc2c(N)nc3cc(CCCN4CCN(C(=O)CCOCCOCCOCCOCCOCCOCCOCCOCCOCCOCCOCCOCCOCCOCCOCCOCCOCCOCCOCCOCCOCCOCCOCCOCCOCCOCCOCCOCCOCCOCCOCCOCCOCCOCCOCCOCCNC(=O)CCOCCOCCOCCOCCNC(=O)CCCOc5c(C)c(C)c6c(c5C)CC[C@@](C)(CCC[C@H](C)CCC[C@H](C)CCCC(C)C)O6)CC4)ccc3c2n1CC(C)(CO)CO [Compound 24] |
| 60 | 1750 | CCOCc1nc2c(N)nc3cc(CCCN4CCN(C(=O)CCOCCOCCOCCOCCOCCOCCOCCOCCOCCOCCOCCOCCOCCOCCOCCOCCOCCOCCOCCOCCOCCOCCOCCOCCOCCOCCOCCOCCOCCOCCOCCOCCOCCOCCOCCOCCNC(=O)CCOCCOCCOCCOCCNC(=O)O[C@H]5CC[C@@]6(C)C(=CC[C@H]7[C@@H]8CC[C@H]([C@H](C)CCCC(C)C)[C@@]8(C)CC[C@@H]76)C5)CC4)ccc3c2n1CC(C)(CO)CO [Compound 4, (3beta)-cholest-5-en-3-yl {127-[4-(3-{4-amino-2-(ethoxymethyl)-1-[3-hydroxy-2-(hydroxymethyl)-2-methylpropyl]-1H-imidazo[4,5-c]quinolin-7-yl}propyl)piperazin-1-yl]-15,127-dioxo-3,6,9,12,19,22,25,28,31,34,37,40,43,46,49,52,55,58,61,64,67,70,73,76,79,82,85,88,91,94,97,100,103,106,109,112,115,118,121,124-tetracontaoxa-16-azaheptacosahect-1-yl}carbamate] |
| 210 | 19600 | CCCCc1nc2c(N)nc3cc(CCCN4CCN(C(=O)CCOCCOCCOCCOCCNC(=O)O[C@H]5CC[C@@]6(C)C(=CC[C@H]7[C@@H]8CC[C@H]([C@H](C)CCCC(C)C)[C@@]8(C)CC[C@@H]76)C5)CC4)ccc3c2n1CC(C)(CO)CO [Compound 12, (3beta,20R)-cholest-5-en-3-yl {15-[4-(3-{4-amino-2-butyl-1-[3-hydroxy-2-(hydroxymethyl)-2-methylpropyl]-1H-imidazo[4,5-c]quinolin-7-yl}propyl)piperazin-1-yl]-15-oxo-3,6,9,12-tetraoxapentadec-1-yl}carbamate] |
| 288 | 9900 | CCCCc1nc2c(N)nc3cc(CCCN4CCN(CCCOCCOCCNC(=O)O[C@H]5CC[C@@]6(C)C(=CC[C@H]7[C@@H]8CC[C@H]([C@H](C)CCCC(C)C)[C@@]8(C)CC[C@@H]76)C5)CC4)ccc3c2n1CC(C)(CO)CO [Compound 18, (20R)-cholest-5-en-3beta-yl [2-(2-{3-[4-(3-{4-amino-2-butyl-1-[3-hydroxy-2-(hydroxymethyl)-2-methylpropyl]-1H-imidazo[4,5-c]quinolin-7-yl}propyl)piperazin-1-yl]propoxy}ethoxy)ethyl]carbamate] |
| 362 | 20200 | CCCCc1nc2c(N)nc3cc(CCCN4CCN(C(=O)CCOCCOCCOCCOCCOCCOCCOCCOCCNC(=O)O[C@H]5CC[C@@]6(C)C(=CC[C@H]7[C@@H]8CC[C@H]([C@H](C)CCCC(C)C)[C@@]8(C)CC[C@@H]76)C5)CC4)ccc3c2n1CC(C)(CO)CO [Compound 19, (20R)-cholest-5-en-3beta-yl {27-[4-(3-{4-amino-2-butyl-1-[3-hydroxy-2-(hydroxymethyl)-2-methylpropyl]-1H-imidazo[4,5-c]quinolin-7-yl}propyl)piperazin-1-yl]-27-oxo-3,6,9,12,15,18,21,24-octaoxaheptacosan-1-yl}carbamate] |
